Publication PMC6686156, “Discovery of Sustainable Drugs for Neglected Tropical Diseases: Cashew Nut Shell Liquid (CNSL)‐Based Hybrids Target Mitochondrial Function and ATP Production in Trypanosoma brucei” (Chemmedchem, 2019)
Where two headings read alike, the source gives them in different places.

Experiments:
[1] = system: T. b. brucei 427WT trypomastigotes; test: Reactive oxygen species (ROS) assay (DCFH-DH); format: cell-based, Trypanosoma brucei brucei; settings: incubation up to 2 h, multiples of EC50
Description: Reactive oxygen species (ROS) assay on T. b. brucei: The production of ROS when T. b. brucei 427WT trypomastigotes incubated with different concentration (2.5×EC50; 1.25×EC50; 0.3×EC50) of test compound was assessed using the indicator dye 2,7‐dichlorodihydrofluorescein diacetate (DCFH‐DH; Sigma–Aldrich). This assay was performed in a 96‐well black‐bottomed well plate; 200 μL of each test compound solution, at 5×EC50 in assay buffer pH 7.3, was added to the well in the first column of the plate and doubling dilutions were carried out across the row, after which 3×10^6 cell in 100 μL of assay buffer were added to each well, immediately followed by 2 μL of 1 mM DCFH‐DH, under minimal light conditions. The plates were incubated in a FLUOstar OPTIMA fluorimeter at 37 °C 5 % CO2 and the fluorescence was monitored at 485 nm for the excitation, 520 nm for the emission for 3 h, taking readings of each well every 2 min. Three wells were included in the plate as controls: 1) 3×10^6 cells per well in assay buffer without test compound; 2) 3×10^6 cells per well in assay buffer with 2 μL of 10 mM H2O2; 3) assay buffer without cells and test compound.

T. b. brucei B48 = test: microbe, parasite or virus in culture; format: cell-based, Trypanosoma brucei brucei; settings: for RF, resistance factor relative to WT (B48): B48 versus 427WT; for EC50: Trypanosoma brucei, read-out: EC50 T. b. b. B48
[2] = system: T. b. brucei 427WT bloodstream trypomastigotes; test: microbe, parasite or virus in culture; format: cell-based, Trypanosoma brucei brucei; settings: for SI, selectivity index=EC50(HFF)/EC50(T. b. b. WT): HFF versus T. b. b. 427WT; for RF, resistance factor (+ 5 mM glycerol versus control): Table 2; for EC50: Trypanosoma brucei; for fold more active than compound 4: trypanocidal activity relative to parent compound 4
T. brucei GAPDH = T. brucei GAPDH (Trypanosoma brucei brucei, UniProt P22512); test: Inhibition of T. brucei GAPDH; format: biochemical; settings: fixed concentration of 10 μM; data not shown; read-out: decrease of GAPDH activity
Chain of T. brucei GAPDH (P22512 whole entry): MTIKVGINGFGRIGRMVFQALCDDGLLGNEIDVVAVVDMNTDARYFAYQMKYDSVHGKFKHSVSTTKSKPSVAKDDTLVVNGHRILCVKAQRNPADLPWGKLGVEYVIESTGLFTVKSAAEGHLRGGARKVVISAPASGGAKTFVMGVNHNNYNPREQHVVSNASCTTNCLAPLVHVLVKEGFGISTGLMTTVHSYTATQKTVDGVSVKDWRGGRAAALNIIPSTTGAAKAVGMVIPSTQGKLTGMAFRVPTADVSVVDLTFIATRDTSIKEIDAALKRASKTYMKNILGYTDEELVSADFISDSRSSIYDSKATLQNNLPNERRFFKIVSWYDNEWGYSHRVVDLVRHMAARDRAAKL
Text: […]. […] Limitations of solubility prevented us from testing the series at higher concentrations. However, it must be noted that we cannot exclude the possibility of a low‐affinity inhibition of GAPDH contributing to the trypanocidal effect, as compounds may accumulate to relatively high concentrations within the parasite.

HFF cells = test: ATP assay on HFF cells; format: cell-based, human; settings: 22 at 200 μM, oligomycin 2 μg/mL; 0, 4, 8 h
Description: ATP assay on T. b. brucei and HFF cells: Changes in cellular ATP levels due to the exposure of trypanosomes to the test compounds (0.5×EC50) were monitored using the Molecular Probes ATP Determination Kit (A22066, Invitrogen Detection Technologies), based on the luciferin–luciferase bioluminescent enzymatic reaction. Bloodstream trypomastigote cultures of T. brucei s427WT were incubated with and without test compound, and, at each predetermined incubation time, 10^7 cells of each sample were transferred into a microfuge tube and centrifuged at 2000×g for 10 min at 4 °C. The pellet was washed twice with 1 mL of 50 mM Tris⋅HCl (pH 7.4) containing 0.1 mM DTT, and then resuspended in 200 μL of the same buffer. […] ATP levels were quantified using the contents of the kit following the manufacturer's instructions; 90 μL of standard reaction solution was added to each well of a 96‐well plate and the background luminescence was recorded in a FLUOstar OPTIMA fluorimeter; 10 μL of each sample was then added to each well. The plate was incubated at 28 °C for 15 min and the luminescence was measured, including a standard curve with an ATP concentration ranging from 1 nM to 1 μM to allow the calculation of the ATP concentrations in each sample. The ATP content was measured at 0, 0.5, 1, 2, 4, 8 and 12 h of incubation with test sample. […]

[3] = 72 h, bloodstream trypomastigotes, resazurin, 48 h + 24 h, n=4, read-out: EC50 T. b. b. 427WT
[4] = Table 2, 5 mM glycerol in medium, average±SEM of three, read-out: EC50 s427WT + 5 mM glycerol
[5] = Table 2, no glycerol, average±SEM of three, read-out: EC50 Control s427WT

## COc1cccc2c1C(=O)C=C(Oc1cccc(CCCCCCCCO)c1)C2=O [Compound 20, 2‐(3‐(8‐Hydroxyoctyl)phenoxy)‐5‐methoxynaphthalene‐1,4‐dione]
[1]
  ROS production: dose‐dependently increased
T. b. brucei B48
  RF, resistance factor relative to WT (B48): 1.1
  EC50: 5.3 ± 0.8 µM
[2]
  SI, selectivity index=EC50(HFF)/EC50(T. b. b. WT): >40
  RF, resistance factor (+ 5 mM glycerol versus control): 1.74
  fold more active than compound 4: up to 10 fold
[2]; [3]
  EC50: 5 ± 0.3 µM
[2]; [4]
  EC50: 16 ± 0.2 µM
[2]; [5]
  EC50: 9.2 ± 0.04 µM
T. brucei GAPDH
  inhibition at 10 µM: < 15%

## O=C1C(Oc2cccc(CCCCCCCCO)c2)=CC(=O)c2c(O)cccc21 [Compound 22, 5‐Hydroxy‐2‐(3‐(8‐hydroxyoctyl)phenoxy)naphthalene‐1,4‐dione]
[1]
  ROS production: dose‐dependently increased
T. b. brucei B48
  RF, resistance factor relative to WT (B48): 0.91
  EC50: 6.8 ± 0.1 µM
[2]
  SI, selectivity index=EC50(HFF)/EC50(T. b. b. WT): >26.3
  RF, resistance factor (+ 5 mM glycerol versus control): 1.11
  fold more active than compound 4: up to 10 fold
[2]; [3]
  EC50: 7.6 ± 0.7 µM
[2]; [4]
  EC50: 28.2 ± 0.2 µM
[2]; [5]
  EC50: 25.4 ± 1 µM
T. brucei GAPDH
  inhibition at 10 µM: < 15%
HFF cells
  effect on cellular ATP levels of HFF cells: only a very minor effect on cellular ATP levels
